A short description of the data set: Human HepG2 cell viability assay in 384 well format. Format: toxicity, cell-based. As to conditions: HepG2 cells, read-out: Inhibition. On the set-up: dose 125 nL, time 70.5 hour; concentration not given beside the values.
With `COc1cccc(CNCc2nnc3n2CC(C(F)(F)F)CC3)c1` (configuration not stated), the cytotoxicity at 70.5 h was determined as 6.13%.

Turning to `O=C(CCn1ccccc1=O)Nc1ccc(I)cc1`, the cytotoxicity at 70.5 h was -10.5%.

As for `Cc1ccc(NC(=O)CNc2cccc3c2CCCC3)c(Br)c1`, the cytotoxicity at 70.5 h was -8.9%.

Turning to `O=C(NCc1cc[nH]n1)NCC(c1ccccc1Cl)N1CCCC1` (configuration not stated), the cytotoxicity at 70.5 h was -14.6%.

Regarding `CNC(=O)c1cccc(NC(=O)CN2CCN(S(C)(=O)=O)CC2)c1`, the cytotoxicity at 70.5 h is -11.3%.

`COC(=O)c1cccc(NC(=O)CN2CCN(S(C)(=O)=O)CC2)c1`: the cytotoxicity at 70.5 h was -9.51%.

For `COc1ccc(NC(=O)CNc2cccc3c2CCCC3)c(OC)c1`, the cytotoxicity at 70.5 h stood at 29.7%.

In the case of `CN1CCN(c2ncccc2CNc2ncccc2C#N)CC1`, the cytotoxicity at 70.5 h is -10.7%.

Regarding `O=C(c1cn(-c2ccccc2Cl)nn1)N1CCCSCC1`, the cytotoxicity at 70.5 h was -9.29%.

On to `CC(C)(CNC(=O)OC(C)(C)C)NC(=O)C1CC(=O)N(C2CC2)C1` (configuration not stated), for which the cytotoxicity at 70.5 h stood at 13.1%.

In the case of `C=C(C)CN(Cc1cccc(O)c1)C1CCC(O)CC1` (configuration not stated), the cytotoxicity at 70.5 h was -6.84%.

`CCN1CC(C(=O)NC(C)(C)CNC(=O)OC(C)(C)C)CC1=O` (configuration not stated): the cytotoxicity at 70.5 h was -8.18%.

In the case of `N#Cc1cccnc1NCc1cccnc1N1CCC(C(N)=O)CC1`, the cytotoxicity at 70.5 h is -9.67%.

In the case of `COc1ccccc1OCC(=O)N1CCN(Cc2noc(C)n2)CC1`, the cytotoxicity at 70.5 h was -10.6%.

As to `Cc1cnn(CC2CCCN2Cc2cc(=O)n3cccc(C)c3n2)c1` (configuration not stated), the cytotoxicity at 70.5 h is -7.45%.

Take `Cc1cccn2c(=O)cc(CN3CCCCC3Cn3cncn3)nc12` (configuration not stated): the cytotoxicity at 70.5 h is 7.36%.

Take `CC(NC1(CNC(=O)C(C)(C)C#N)CCOCC1)c1ccccc1` (configuration not stated): the cytotoxicity at 70.5 h worked out at 15.5%.

In the case of `Cc1ccc(C2CSCCN2C(=O)c2ccsc2)o1` (configuration not stated), the cytotoxicity at 70.5 h is -6.25%.

Take `Cc1cc(C)n(-c2cncc(NCCNC(=O)CC3CCCC3)n2)n1`: the cytotoxicity at 70.5 h was -4.52%.

On to `CC1CCCN(C(=O)c2csc(S(N)(=O)=O)c2)CC1` (configuration not stated), for which the cytotoxicity at 70.5 h is -1.03%.

For the compound `FC(F)(F)C1CCc2nnc(CNCc3ccsc3)n2C1` (configuration not stated), the cytotoxicity at 70.5 h is -2.38%.

Consider `C[S+]([O-])c1nncn1CC(=O)c1ccc(Cl)c(Cl)c1` (configuration not stated), for which the cytotoxicity at 70.5 h is -3.69%.

On to `CCN1CC(C(=O)NC(C)(C)CC(C)(C)C)CC1=O` (configuration not stated), for which the cytotoxicity at 70.5 h was -1.71%.

Regarding `Cc1nc(CN2CCN(C(=O)COCc3ccccc3)CC2)no1`, the cytotoxicity at 70.5 h was -9.26%.

As to `CCN1CCC(CNC(=O)C2(c3cccc(C)c3)CCCCC2)CC1`, the cytotoxicity at 70.5 h stood at 1.1%.

`Cc1cnn(CC(C)NCc2nc(-c3ccsc3)oc2C)c1` (configuration not stated): the cytotoxicity at 70.5 h was -8.91%.

As to `CCN1CCC(NC(=O)CN2CC(n3nc(C)cc3C)C2)CC1`, the cytotoxicity at 70.5 h was -6.85%.

`CN(C)CCN1CCN(C(=O)c2ccn(C)c(=O)c2)CC1`: the cytotoxicity at 70.5 h is -11.6%.

As to `Cc1ccc(C)c(C(=O)N2CCN(C(=O)Cc3ccccn3)CC2)c1`, the cytotoxicity at 70.5 h was -8.87%.

Take `Fc1ccc(OCCNCCn2cccn2)cc1`: the cytotoxicity at 70.5 h was -9.89%.

As for `COCc1nc(C(=O)N2CCCC2c2ccc(OC)cc2)cs1` (configuration not stated), the cytotoxicity at 70.5 h is -14.3%.

Regarding `Cc1cccc(C(=O)N2CCC(c3n[nH]c(C4CC4)n3)CC2)c1`, the cytotoxicity at 70.5 h was found to be 20.7%.

With `N#Cc1ccc(OCCNCCn2cccn2)cc1`, the cytotoxicity at 70.5 h is -10.2%.

`COCc1nc(C(=O)N2CCCC2c2cccs2)cs1` (configuration not stated): the cytotoxicity at 70.5 h was -7.86%.

Consider `CC(Cn1cccn1)NCc1csc(-c2ccsc2)n1` (configuration not stated), for which the cytotoxicity at 70.5 h is -12.1%.

In the case of `Cc1nn(C)c(N(C)C)c1CNCc1ccnc(N2CCOCC2)c1`, the cytotoxicity at 70.5 h is -5.46%.

As for `CCn1cnnc1CNC(=O)c1cc(Cl)ccc1I`, the cytotoxicity at 70.5 h is -10.9%.

In the case of `CCn1cnnc1CNC(=O)c1ccc(Cl)cc1I`, the cytotoxicity at 70.5 h is -7.84%.

As for `CC(=O)Nc1nc(C(=O)NCc2ccc(OC(C)C)nc2)cs1`, the cytotoxicity at 70.5 h was -5.15%.

`CC(=O)Nc1nc(C(=O)NCc2ccc(N3CCOCC3)nc2)cs1`: the cytotoxicity at 70.5 h is 14.9%.

In the case of `CCn1cnnc1CNC(=O)c1cc(Cl)ccc1F`, the cytotoxicity at 70.5 h was -11.5%.

Take `COc1c(CNCc2ccnc(N3CCOCC3)c2)c(C)nn1C`: the cytotoxicity at 70.5 h was -3.59%.

For `O=C(CCNc1ncccn1)N1CCCC(n2cccn2)C1` (configuration not stated), the cytotoxicity at 70.5 h is -5.02%.

For the compound `CC(C)Cc1nc(CN2CCN(CC(O)c3ccccc3)CC2)no1` (configuration not stated), the cytotoxicity at 70.5 h was -3.23%.

Turning to `Cn1ccc(C(=O)N2CCN(CC(O)C(C)(C)C)CC2)cc1=O` (configuration not stated), the cytotoxicity at 70.5 h was -5.62%.

Regarding `O=C(CCCNc1ncccn1)N1CCCC(n2cncn2)C1` (configuration not stated), the cytotoxicity at 70.5 h was -7.32%.

Consider `CCc1nc(CN2CCCN(C(=O)c3ccco3)CC2)cs1`, for which the cytotoxicity at 70.5 h is 16.2%.

Take `Cc1cc(C)n(CC2CCCN2C(=O)c2ccc(NC3CC3)nc2)n1` (configuration not stated): the cytotoxicity at 70.5 h was determined as 20.6%.

`COc1ccc(NC(=O)NCC(O)c2ccccc2F)c(OC)c1` (configuration not stated): the cytotoxicity at 70.5 h came out at 19.2%.

Regarding `O=S(=O)(NCc1ccccc1Cn1cncn1)N1CCCCCC1`, the cytotoxicity at 70.5 h is -7.52%.

On to `O=S(=O)(NCc1ccccc1Cn1cncn1)N1CCCCC1`, for which the cytotoxicity at 70.5 h is -10.7%.

As to `CCOc1cc(/C=C/c2ncc(C(=O)O)s2)cc(Br)c1OC`, the cytotoxicity at 70.5 h is -10.4%.

Consider `CCOc1cc(/C=C/c2ncc(C(=O)O)s2)cc(Br)c1O`, for which the cytotoxicity at 70.5 h was -11.1%.

As for `CCn1cc(NC(=O)C2CCN(Cc3nc(C(C)C)no3)CC2)cn1`, the cytotoxicity at 70.5 h is -6.8%.

In the case of `Cn1cc(C(=O)NCC2CCN(C(=O)NC3CCCCC3)CC2)cn1`, the cytotoxicity at 70.5 h is -15.9%.

For `c1ccc(Cc2noc(CN3CCCC(Cn4cncn4)C3)n2)cc1` (configuration not stated), the cytotoxicity at 70.5 h is -14.5%.

Consider `COC(=O)C(c1cc(F)ccc1F)N(C)C(=O)c1cnccn1` (configuration not stated), for which the cytotoxicity at 70.5 h came to 21.6%.

For `Cc1nc(CN2CCCN(C(=O)CCc3ccco3)CC2)cs1`, the cytotoxicity at 70.5 h is -12.4%.

`Cc1ccc(NC2CCN(C(=O)COC3CCCCC3)CC2)nn1`: the cytotoxicity at 70.5 h was 20.5%.

For `Cc1ccc(NC2CCN(C(=O)COCC3CC3)CC2)nn1`, the cytotoxicity at 70.5 h is -2.64%.

With `Cc1cc(C)n(CC2CCCN2C(=O)c2c[nH]c(=O)c(Cl)c2)n1` (configuration not stated), the cytotoxicity at 70.5 h was -11.8%.

Take `Cc1ncsc1C(=O)N1CCCC(n2cncn2)C1` (configuration not stated): the cytotoxicity at 70.5 h was -13.3%.

As for `CCn1cc(NC(=O)C2CCN(Cc3noc(C4CC4)n3)CC2)cn1`, the cytotoxicity at 70.5 h was -8.03%.

Regarding `CC(C)(C)c1nc(CN2CCCC(Cn3cncn3)C2)no1` (configuration not stated), the cytotoxicity at 70.5 h is -13.7%.

`O=C(c1cncc2ccccc12)N1CCC[C@@H]1CO`: the cytotoxicity at 70.5 h was -11.6%.

Regarding `COc1c(C2CCCN2CC(=O)NCc2ccccn2)c(C)nn1C` (configuration not stated), the cytotoxicity at 70.5 h was -11.4%.

For the compound `COC(=O)C(c1ccccc1)N(C)C(=O)c1ccnc(C)n1` (configuration not stated), the cytotoxicity at 70.5 h was -8.31%.

Turning to `O=C(NCCNc1cnccn1)N1CCCC(N2CCCC2)C1` (configuration not stated), the cytotoxicity at 70.5 h came to 3.31%.

In the case of `Clc1ccc(OCCCN2CCOC(Cn3cncn3)C2)cc1` (configuration not stated), the cytotoxicity at 70.5 h turned out to be 24.6%.

`CC(C)Sc1ncccc1C(=O)NCc1ccoc1`: the cytotoxicity at 70.5 h is -9.56%.

As for `Cc1cc(C)c(CNC(=O)N2CCCC2c2ccc(F)cc2)c(=O)[nH]1` (configuration not stated), the cytotoxicity at 70.5 h is -6.72%.

On to `CC(C)Sc1ncccc1C(=O)NCc1cccc(N(C)C)c1`, for which the cytotoxicity at 70.5 h stood at 0.244%.

As for `N#Cc1cccnc1N1CCCN(C(=O)CCn2cccn2)CC1`, the cytotoxicity at 70.5 h is -9.39%.

For the compound `O=C1NCC(C(=O)Nc2ncc(Cc3ccccc3F)s2)N1` (configuration not stated), the cytotoxicity at 70.5 h is 3.26%.

For `O=C1NCC(C(=O)Nc2ncc(Cc3ccccc3)s2)N1` (configuration not stated), the cytotoxicity at 70.5 h came to 44.7%.

Consider `Cc1cc(NC(=O)CNC2CCCN(c3cccnn3)C2)on1` (configuration not stated), for which the cytotoxicity at 70.5 h worked out at 43.8%.

`O=C1NCC(C(=O)Nc2ncc(Cc3ccc(F)cc3)s2)N1` (configuration not stated): the cytotoxicity at 70.5 h is -3.14%.

As to `CC(C)(C)c1n[nH]c(C2CN(C(=O)Cn3ccccc3=O)CCO2)n1` (configuration not stated), the cytotoxicity at 70.5 h was -5.55%.

`CCCc1n[nH]c(C2CN(C(=O)Cn3ccccc3=O)CCO2)n1` (configuration not stated): the cytotoxicity at 70.5 h was -4.93%.

On to `CC(c1ccc(F)c(F)c1)N1CCN(Cc2nccn2C)CC1` (configuration not stated), for which the cytotoxicity at 70.5 h is 47.8%.

Turning to `CCOc1nnc(CN2CCOC(CNc3cccnn3)C2)s1` (configuration not stated), the cytotoxicity at 70.5 h came to 15%.

Consider `CC(O)CN1CCN(C(=O)c2cccc(CC#N)c2)CC1` (configuration not stated), for which the cytotoxicity at 70.5 h came to 12.7%.

For the compound `CC(O)CN1CCN(C(=O)c2ccc(N(C)C)nc2)CC1` (configuration not stated), the cytotoxicity at 70.5 h was found to be 12%.

Consider `CN(CCCNC(=O)N1CCCC1c1ccsc1)c1ccccn1` (configuration not stated), for which the cytotoxicity at 70.5 h was 16.8%.

`O=C(NCCN1CCOCC1)c1n[nH]c(=O)c2ccccc12`: the cytotoxicity at 70.5 h was -10.8%.

For the compound `O=C(NCCCN1CCCC1)c1n[nH]c(=O)c2ccccc12`, the cytotoxicity at 70.5 h was -9.07%.

Take `COc1ccc(C2CCCN2C(=O)c2csc(NC(C)=O)n2)cc1` (configuration not stated): the cytotoxicity at 70.5 h was -20.6%.

Take `CN(Cc1cnn(C)c1)C(=O)NC1CCN(c2ncccn2)CC1`: the cytotoxicity at 70.5 h worked out at 12.2%.

With `COc1ncccc1NC(=O)C1CCS(=O)(=O)C1` (configuration not stated), the cytotoxicity at 70.5 h is -15.1%.

In the case of `Cc1ncsc1C(=O)NC1CCN(Cc2ccc(C#N)cc2)CC1`, the cytotoxicity at 70.5 h is -14.1%.

Take `CC(=O)Nc1nc(C(=O)N2CCCC2c2ccccc2C)cs1` (configuration not stated): the cytotoxicity at 70.5 h was -19.1%.

Consider `CCn1cnnc1CNC(=O)NC(C)C(C)C` (configuration not stated), for which the cytotoxicity at 70.5 h is -17.7%.

In the case of `Cn1cnnc1C1CCN(C(=O)CCCOc2ccccc2F)CC1`, the cytotoxicity at 70.5 h is -12.8%.

`Cc1cccc(-c2nc(CN3CCc4c(ncn4C)C3)no2)c1`: the cytotoxicity at 70.5 h is 20.5%.

For `Cc1cc(C)n(CC2CCCN2CC(=O)NC2CCOCC2)n1` (configuration not stated), the cytotoxicity at 70.5 h is -15.9%.

Turning to `COc1ccc2cc(C(=O)N3CCCCC3Cn3cccn3)[nH]c2c1` (configuration not stated), the cytotoxicity at 70.5 h was -3.69%.

As to `Cc1cc(C)n(C2CN(CC(O)c3ccc4c(c3)OCO4)C2)n1` (configuration not stated), the cytotoxicity at 70.5 h was -2.16%.

Turning to `CC(O)CN1CCN(C(=O)c2ccc(N(C)C)nn2)CC1` (configuration not stated), the cytotoxicity at 70.5 h is -4.33%.

Regarding `CC(C)c1nnc2n1CCN(CCCS(=O)(=O)c1ccccc1)C2`, the cytotoxicity at 70.5 h was -13.8%.

Consider `Cn1c(C2CC2)nc2c1CCN(CC(=O)Nc1nncs1)C2`, for which the cytotoxicity at 70.5 h was -18.2%.

`CN(C)c1ccc(C(=O)N2CCN(C(=O)N3CCCCC3)CC2)nn1`: the cytotoxicity at 70.5 h was -18.5%.

As for `Cc1ncc2c(n1)CCN(Cc1nc3ccccc3o1)C2`, the cytotoxicity at 70.5 h was found to be 0.854%.

These data come from ChEMBL document CHEMBL3507680, “University of Dundee, Gates Library screen for HepG2 cell viability”.
